# According to article PMC13327620, “A Deep‐Red‐Absorbing Osmium(II) Complex as a Photosensitizer for Photodynamic Therapy Inducing Immunogenic Cell Death” (Angewandte Chemie (International Ed. in English), 2026):
# How the values were obtained:
# [1] = Photophysical properties (fluorescence and singlet oxygen quantum yield, lifetime); assay type: physicochemical; details: in ethanol
# Description: System Inc, Phoenixville, PA, USA). The excitation beam is separated by a SPEX dual […]
# network monochromator (1200 lines / mm blazed at 330 nm). The fluorescence was […]
# measured by the UV-Visible detector via the SPEX dual network emission […]
# monochromator (1200 lines / mm blazed at 500 nm). Singlet oxygen production was […]
# measured with an infrared detector InGaAs (800 - 1550 nm) via the dual network […]
# emission monochromator SPEX (600 lines / mm blazed at 1 µm).
# All spectra were measured using 4-sided quartz cells. The absorption values of the […]
# references and samples at the excitation wavelength were adjusted to 0.2. All emission […]
# spectra were normalized to the same absorbance for the purpose of comparison.
# [Ru(bpy)3]2+ in acetonitrile was chosen as standard for both fluorescence and singlet […]
# oxygen quantum yield determination. Fluorescence quantum yield of [ Ru(bpy)3]2+ i n […]
# acetonitrile is evaluated at 0.077.[5] Singlet oxygen quantum yield of [ Ru(bpy)3]2+ i n […]
# acetonitrile is evaluat ed at 0.77.[6]
# Time-resolved experiments were performed using for excitation: a pulsed laser diode […]
# emitting at 407 nm (LDH-P-C-400M, FWHM < 70 ps, 1 MHz) coupled with a driver […]
# PDL 800- D (both PicoQuant GmbH, BERLIN, Germany) and for detection: an […]
# avalanch e photodiode SPCM-AQR-15 (EG & G, VAUDREUIL, Can ada) coupled with […]
# a 650 nm long- wav e p ass filter as det ection system. The acquisition was p erformed by […]
# a PicoHarp 300 module with a 4 channels router PHR-800 (both PicoQuant GmbH, […]
# BERLIN, Germany ). Th e fluores cence decays were recorded using the single photon […]
# counting method. Data were collected up to 1000 counts accumulated in the maximum […]
# channel and analyzed using Time Correlated Single Photon Counting (TCSPC) […]
# software Fluofit (PicoQuant GmbH, BERLIN, Germany) based on iterative reconvolution using a Levensberg- M arquandt alg oritm, enabling the obtention of multi-exponential profiles (m ainly one or two exponenti als in our cases ). […]
# ATP release = test: Detection of extracellular ATP in CT26 cells; assay type: cell-based, mouse; details: CT26, irradiated at 740 nm
# Description: We finally measured ATP release, another important event in ICD, using a bioluminescence detection kit (Figure 3E).
# Scientific, Catalog no.15 5411) at a d ensity of 8,00 0 cells p er well and cultu red fo r 24 h at 37 °C with 5 % CO2. T he cells wer e then treated with a solution of the compounds at a concentration corresponding to the IC50 for 4 h. After refreshing the medium, cells were subjected to irradiation and incubated for an additional 12 h. Subsequently, the cells were fix ed with 4% paraformaldehyde and immunostained with Anti- Calreticulin antibody (Abcam, Catalog no. ab2907) diluted 1/1000 at 4 °C overnight. Cells were then washed three times with PBS, treated with Goat Anti- Rabbit IgG H&L (Alexa […]
# temperature in the dark, washed in PBS and treat ed with 10 µg/mL Hoechst for 15 min.
# After a final wash, cells were analyzed by confocal microscopy as det ailed above. […]
# incubated for 24 h. Cells were then treat ed with the determined IC50 of complexes and irradiated or kept in the dark. Supernatants were collected 12 h post-t reatm ent, and the extracellular ATP content was measured with Adenosine 5′ -triphosphate (ATP) Bioluminescent Assay Kit (Sigma-Aldrich) according tomanufacturer ’s ins truction. […]
# 556419) and PI (BD Biosciences, Catalog no.51- 66211E). CT26- luc cells were analyzed by flow cytometry (Beckm an Coulter Life Sciences, CytoFLEX LX Flow Cytometer). […]
# CT26 cells = test: ICD in vitro, summary of the three hallmarks; assay type: cell-based, mouse
# Description: A weak ICD was present in cells treated with 6.12 µM Os2 in the dark (limited translocation of CRT) and Ce6‐treated cells under 770 nm light (partial release of HMGB‐1).
compound,measurement,setting,value
"C=Cc1c(C)c2cc3nc(c(CC(=O)O)c4[nH]c(cc5nc(cc1[nH]2)C(C)=C5CC)c(C)c4C(=O)O)[C@@H](CCC(=O)O)[C@@H]3C [Ce6, chlorin e6]",Fluorescence lifetime,[1],4.7 ns
same,Fluorescence quantum yield,[1],0.20
same,Singlet oxygen quantum yield,[1],0.65
same,ATP release,ATP release,significantly enhanced ATP release
same,ICD (all three hallmarks),"CT26 cells; CT26, 770 nm light",weak ICD
same,ICD (all three hallmarks),"CT26 cells; CT26, illumination at 740 nm",strong ICD
